Measurements: patent EP3423441B1, “IODINATED ANALOGS OF CHOLINE, METHODS OF PREPARATION THEREOF, AND USE THEREOF AS MEDICAMENTS” (Univerzita Palackého v Olomouci, priority 2016, dated 2017)
Read-outs that look alike come from different tables or passages of the source.

How the values were obtained:
in vitro = conditions: liver microsomes
Microsomal stability = conditions: hepatic microsomes
choline transporters [1] = test: In vitro determination of IC50: inhibition of [^3H]choline chloride accumulation in PC-3 cells; type: cell-based; conditions: cell line PC-3 (human prostate carcinoma); [^3H]choline chloride 0.81 × 10^-6 M; 60 min at 37 °C
Description: IC50 value corresponds to a concentration of the given analog of choline which reduces the accumulation of choline chloride, the natural ligand of choline transporterss, to 50 % of the maximum value. For the assay, the tritium labeled choline chloride, i.e. [^3H]choline chloride, was used. The assay was performed in vitro on the cell line PC-3 derived from a human prostate carcinoma, which is known to overexpress choline transporters. […] As the negative control, a cell line of human ovarian carcinoma SKOV3 prepared to the confluence of 90 % in 24-well plates was used.
The cultivation medium was removed from the thus prepared cells in cultivation plates and the cells were rinsed with phosphate buffered saline (PBS). Subsequently, 0.3 mL of "incubation buffer" (25 mM Tris/HCl, 5.4 mM KCl, 1.8 mM CaCl2, 0.8 mM MgSO4, 5 mM glucose, 140 mM NaCl, pH adjusted to 7.4) was added to the cells. Then 0.1 mL of the solution of the tested substance (analog of choline) in the incubation buffer was added to the PC-3 cells in such concentrations, that after adding [^3H]choline chloride the resulting concentrations of the tested analog would be following: 0 M, 10^-8 M, 10^-7 M, 10^-6 M, 5 × 10^-6 M, 10^-5 M, 10^-4 M, 5 × 10^-4 M, 10^-3 M, 5×10^-3 M. Each concentration was tested in triplicate.
Subsequently, all cells prepared in this manner (PC-3 and SKOV3) were incubated with the analogs of choline for 15 minutes at the temperature of 37 °C.
Then 0.1 mL of the solution of the [^3H]choline chloride in the incubation buffer was added to all cell-containing wells, so that 0.1 mL of the solution had the activity of 15 kBq and that the final concentration of the [^3H]choline chloride in the medium with the cells was 0.81 × 10^-6 M. The cells were then incubated at 37 °C for a period of 60 min. After the incubation, all buffer solution was removed from the cells. The cells were rinsed with PBS, which was subsequently removed, and 0.2 mL of aqueous NaOH solution (0.1 M) was added to each well. The cells were incubated with sodium hydroxide for 30 min at 37 °C. The lysate was then homogenized with a pipette and 10 µL of the lysate were used for the determination of protein concentration by bicinchonic acid assay (BCA).
The remaining lysate (180 µL) was quantitatively transferred into scintillation vials containing a previously prepared scintillation solution (2 mL of the solution in each vial). Each well was then additionally rinsed with 0.2 mL of pure water and this solution was added to the corresponding scintillation vials. Scintillation vials were closed and their content was stirred on a shaker.
To another three scintillation vials containing scintillation solution (2 mL of the solution in each vial) the standard samples of [^3H]choline chloride were added (i.e. 10 µl of the [^3H]choline chloride solution together with 180 µl of aqueous NaOH solution (0.1 M) and 200 µl of water). The vials were closed and their content was stirred on the shaker.
Subsequently, radioactivity of each scintillation vial was measured using a liquid scintillation counter (Tri-Carb 2910TR Liquid Scintillation Counter, PerkinElmer). The recorded counts per second (cps) were then used to calculate the accumulation of [^3H]choline chloride in the individual cell samples. […] These values were used to construct a sigmoid curve of dependence between the rate of [^3H]choline chloride accumulation and the competing ligand (analog of choline) concentration(inhibition curve, Figure 2). The IC50 values were calculated from these inhibition curves.

[2] = Binding to plasmatic proteins; conditions: plasma
choline transporters [3] = conditions: published data, Müller S. A. et al. (2009); cited from earlier work

SMILES | Plasma stability (120 min) (Stability in the plasma) | microsomal CLint (in vitro) | Microsomal stability t1l2 (Microsomal stability) | IC50 (choline transporters [1]) | fraction unbound [2] | IC50 (choline transporters [3])
CC[N+](CC)(CCO)Cc1ccccc1I.Cc1ccc(S(=O)(=O)[O-])cc1 [Example 15, Diethyl-(2-hydroxyethyl)-(2-iodobenzyl)ammonium 4-methylbenzenesulfonate] | 84.9% | 73.6 µL/min/mg | 18.8 min | 8.4 µM | 0.814 | –
C[N+]1(CCc2ccc(I)cc2)CCCC(O)C1.Cc1ccc(S(=O)(=O)[O-])cc1 (stereo not drawn) [Example 6, 3-hydroxy-1-[2-(4-iodophenyl)ethyl]-1-methylpiperidin-1-ium 4-methylbenzenesulfonate] | 81.3% | 1230 µL/min/mg | 1.1 min | 83 µM | 0.735 | –
COc1c(I)cc(CC[N+](C)(C)CCO)cc1I.Cc1ccc(S(=O)(=O)[O-])cc1 [Example 3, (2-hydroxyethyl)-[2-(3,5-diiodo-4-methoxyphenyl)ethyl]-dimethylammonium 4-methylbenzenesulfonate] | 76.4% | 1040 µL/min/mg | 1.3 min | 25 µM | 0.512 | –
COc1ccc(CC[N+]23CCC(CC2)C(O)C3)cc1I.Cc1ccc(S(=O)(=O)[O-])cc1 (stereo not drawn) [Example 2, 3-hydroxy-1-[2-(3-iodo-4-methoxyphenyl)ethyl]quinuclidin-1-ium 4-methylbenzenesulfonate] | 59.0% | 14.2 µL/min/mg | 97.6 min | 92 µM | 0.748 | –
C[N+](C)(CCO)Cc1ccccc1I.Cc1ccc(S(=O)(=O)[O-])cc1 [Example 19, (2-hydroxyethyl)-(2-iodobenzyl)-dimethylammonium 4-methylbenzenesulfonate] | 91.3% | 166 µL/min/mg | 8.3 min | 160 µM | 0.661 | –
Cc1ccc(S(=O)(=O)[O-])cc1.OC1C[N+]2(CCc3ccc(I)cc3)CCC1CC2 (stereo not drawn) [Example 8, 3-hydroxy-1-[2-(4-iodophenyl)ethyl]quinuclidin-1-ium 4-methylbenzenesulfonate] | 89.9% | 39.8 µL/min/mg | 34.8 min | 120 µM | 0.717 | –
C[N+]1(C)CCOC(O)(c2ccc(-c3ccc(C4(O)C[N+](C)(C)CCO4)cc3)cc2)C1 (stereo not drawn) [Hemicholinium-3, reference compound] | – | – | – | 29 µM | – | 17 µM
Cc1ccc(S(=O)(=O)[O-])cc1.OCC[N+]1(CCc2ccc(I)cc2)CCCC1 [Example 7, 1-(2-hydroxyethyl)-1-[2-(4-iodophenyl)ethyl]pyrrolidin-1-ium 4-methylbenzenesulfonate] | 97.6% | 90.6 µL/min/mg | 15.3 min | 16 µM | 0.833 | –
C[N+](C)(CCO)CCc1ccc(I)cc1.Cc1ccc(S(=O)(=O)[O-])cc1 [Example 5, (2-hydroxyethyl)-[2-(4-iodophenyl)ethyl]-dimethylammonium 4-methylbenzenesulfonate] | 43.0% | 88.6 µL/min/mg | 15.6 min | 7.4 µM | 0.653 | –
